Structures are written as SMILES. Several values for one entry are separate records, joined by “and”; a condition that tells them apart may be missing. Equal values may be shown once. Inconclusive results and toxic doses are left out.

The test has as its system L1210 leukemia ip in BDF1 mice, survival T/C. The test can be described thus: NCI In Vivo Anticancer Drug Screen. Data for tumor model L1210 Leukemia (intraperitoneal) in B6D2F1 (BDF1) mice. The following applies: endpoint: mean survival time, higher = longer survival. In outline: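 Tumor cells were implanted, animals were treated, and survival was followed. The result divides the treated measurement by the vehicle-control measurement.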

[1] abbreviates: dose: 100.0 mg/kg/injection, schedule: Q04DX003 (ip), vehicle: saline.
[2] abbreviates: dose: 200.0 mg/kg/injection, schedule: Q04DX003 (ip), vehicle: saline.
Setting [3] is: dose: 100.0 mg/kg/injection, schedule: Q04DX002 (ip), vehicle: saline.
[4] abbreviates: dose: 200.0 mg/kg/injection, schedule: Q04DX002 (ip), vehicle: saline.
[5] abbreviates: dose: 50.0 mg/kg/injection, schedule: Q01DX009 (ip), vehicle: Klucel (hydroxypropylcellulose) (HPC).
Setting [6] is: dose: 100.0 mg/kg/injection, schedule: Q01DX009 (ip), vehicle: Klucel (hydroxypropylcellulose) (HPC).
[7] abbreviates: dose: 100.0 mg/kg/injection, schedule: Q04DX003 (ip), vehicle: Klucel (hydroxypropylcellulose) (HPC).
Setting [8] is: dose: 200.0 mg/kg/injection, schedule: Q01DX009 (ip), vehicle: Klucel (hydroxypropylcellulose) (HPC).
Where [9] appears, read: dose: 200.0 mg/kg/injection, schedule: Q04DX003 (ip), vehicle: Klucel (hydroxypropylcellulose) (HPC).
[10] abbreviates: dose: 100.0 mg/kg/injection, schedule: Q01DX001 (ip), vehicle: saline.
Setting [11] is: dose: 200.0 mg/kg/injection, schedule: Q01DX001 (ip), vehicle: saline.
[12] abbreviates: dose: 400.0 mg/kg/injection, schedule: Q01DX001 (ip), vehicle: saline.
Where [13] appears, read: dose: 100.0 mg/kg/injection, schedule: Q04DX002 (ip), vehicle: Klucel (hydroxypropylcellulose) (HPC).
Where [14] appears, read: dose: 200.0 mg/kg/injection, schedule: Q04DX002 (ip), vehicle: Klucel (hydroxypropylcellulose) (HPC).
The mark [15] stands for this setting: dose: 400.0 mg/kg/injection, schedule: Q04DX002 (ip), vehicle: Klucel (hydroxypropylcellulose) (HPC).
The mark [16] stands for this setting: dose: 100.0 mg/kg/injection, schedule: Q01DX009 (ip), vehicle: saline with Tween-80.
The mark [17] stands for this setting: dose: 100.0 mg/kg/injection, schedule: Q04DX003 (ip), vehicle: saline with Tween-80.
The mark [18] stands for this setting: dose: 200.0 mg/kg/injection, schedule: Q01DX009 (ip), vehicle: saline with Tween-80.
[19] abbreviates: dose: 200.0 mg/kg/injection, schedule: Q04DX003 (ip), vehicle: saline with Tween-80.
[20] abbreviates: dose: 400.0 mg/kg/injection, schedule: Q04DX003 (ip), vehicle: saline with Tween-80.
Setting [21] is: dose: 100.0 mg/kg/injection, schedule: Q01DX009 (ip), vehicle: saline.
Setting [22] is: dose: 200.0 mg/kg/injection, schedule: Q01DX009 (ip), vehicle: saline.

For `CC(=O)OC1CCC2CCCCC2/C1=N\O` (stereo not drawn), the T/C is, setting by setting: (dose: 50.0 mg/kg/injection, schedule: Q04DX003 (ip), vehicle: saline) 112 % of control; under setting [1], 95 % of control; under setting [2], 97 % of control.

Regarding `Oc1c(CNCCCN2CCCC2)cc(Cl)c2cccnc12`, the T/C is 97 % of control under setting [3] and 97 % of control under setting [4].

As for `Oc1ccc(C2CCCCC2)c(O)c1`, the T/C by setting is: under setting [5], 96 % of control; (dose: 50.0 mg/kg/injection, schedule: Q04DX003 (ip), vehicle: Klucel (hydroxypropylcellulose) (HPC)) 101 % of control; under setting [6], 96 % of control; under setting [7], 98 % of control; under setting [8], 100 % of control; under setting [9], 103 % of control.

On to `CCC(CO)Nc1nncc2ccccc12` (stereo not drawn), for which the T/C is 98 % of control under setting [10], 96 % of control under setting [11] and 104 % of control under setting [12].

In the case of `Nc1ccc([N+](=O)[O-])cc1Cl`, the T/C is 122 % of control under setting [13], 105 % of control under setting [14] and 97 % of control under setting [15].

On to `C[CH2][Ge]1([CH2]C)[CH2]CC2(C[CH2]1)NC(=O)N(CCCN(C)C)C2O` (stereo not drawn), for which the T/C by setting is: under setting [3], 96 % of control; under setting [4], 100 % of control; (dose: 400.0 mg/kg/injection, schedule: Q04DX002 (ip), vehicle: saline) 88 % of control.

In the case of `O=C(NC(CSC(c1ccccc1)c1ccccc1)C(=O)O)OCc1ccccc1` (stereo not drawn), the T/C (dose: 25.0 mg/kg/injection, schedule: Q01DX009 (ip), vehicle: Klucel (hydroxypropylcellulose) (HPC)) was 103 % of control; the T/C under setting [5] was 100 % of control; the T/C under setting [6] was 100 % of control and 88 % of control; the T/C under setting [7] was 93 % of control; the T/C under setting [9] was 95 % of control; the T/C (dose: 400.0 mg/kg/injection, schedule: Q04DX003 (ip), vehicle: Klucel (hydroxypropylcellulose) (HPC)) was 89 % of control.

For `CCCCC(c1nc2c(c3c1CCCC3)CCCC2)C(O)(C(F)(F)F)C(F)(F)F` (stereo not drawn), the T/C runs as follows: (dose: 25.0 mg/kg/injection, schedule: Q01DX009 (ip), vehicle: saline with Tween-80) 102 % of control; (dose: 50.0 mg/kg/injection, schedule: Q01DX009 (ip), vehicle: saline with Tween-80) 104 % of control; under setting [16], 93 % of control and 87 % of control; under setting [17], 97 % of control; under setting [18], 89 % of control; under setting [19], 100 % of control. The T/C under setting [20] is 102 % of control.

`ClC(Cl)(Cl)c1cccc(-c2nc(NCCCN3CCCC3)nc(C(Cl)(Cl)Cl)n2)c1`: the T/C runs as follows: under setting [6], 102 % of control; under setting [8], 100 % of control; (dose: 400.0 mg/kg/injection, schedule: Q01DX009 (ip), vehicle: Klucel (hydroxypropylcellulose) (HPC)) 86 % of control.

With `Cc1cnc(N/N=C/c2ccccc2)nc1-c1ccccc1O`, the T/C by setting is: under setting [13], 103 % of control; under setting [14], 100 % of control; under setting [15], 92 % of control.

As for `CCSC(=O)N1c2ccc(C)cc2C=CC1C#N` (stereo not drawn), the T/C was 93 % of control under setting [16]; 90 % of control under setting [17]; 104 % of control under setting [18]; 89 % of control under setting [19]; 95 % of control under setting [20].

As to `CCCSP(C(C)C)C(C)C`, the T/C by setting is: (dose: 12.5 mg/kg/injection, schedule: Q04DX003 (ip), vehicle: saline with Tween-80) 94 % of control; (dose: 25.0 mg/kg/injection, schedule: Q04DX003 (ip), vehicle: saline with Tween-80) 94 % of control; (dose: 50.0 mg/kg/injection, schedule: Q04DX003 (ip), vehicle: saline with Tween-80) 91 % of control.

Regarding `O=[As](O)(CC(O)c1ccccc1)c1ccccc1` (stereo not drawn), the T/C is, setting by setting: (dose: 6.25 mg/kg/injection, schedule: Q01DX001 (ip), vehicle: saline with Tween-80) 97 % of control; (dose: 12.5 mg/kg/injection, schedule: Q01DX001 (ip), vehicle: saline with Tween-80) 103 % of control.

Take `COc1cc(C=Nc2ccc(-c3csc(COc4ccccc4)n3)cc2)ccc1N(CCCl)CCCl`: the T/C is 116 % of control (dose: 3.7 mg/kg/injection, schedule: Q01DX015 (ip), vehicle: carboxymethylcellulose (CMC)); 117 % of control (dose: 6.2 mg/kg/injection, schedule: Q01DX015 (ip), vehicle: carboxymethylcellulose (CMC)); 119 % of control (dose: 9.3 mg/kg/injection, schedule: Q01DX015 (ip), vehicle: carboxymethylcellulose (CMC)); 121 % of control (dose: 10.0 mg/kg/injection, schedule: Q01DX001 (ip), vehicle: carboxymethylcellulose (CMC)); 124 % of control (dose: 15.0 mg/kg/injection, schedule: Q01DX015 (ip), vehicle: carboxymethylcellulose (CMC)); 123 % of control (dose: 20.0 mg/kg/injection, schedule: Q01DX001 (ip), vehicle: carboxymethylcellulose (CMC)). The T/C is, setting by setting: (dose: 40.0 mg/kg/injection, schedule: Q01DX001 (ip), vehicle: carboxymethylcellulose (CMC)) 156 % of control; (dose: 50.0 mg/kg/injection, schedule: Q01DX001 (ip), vehicle: carboxymethylcellulose (CMC)) 107 % of control; (dose: 50.0 mg/kg/injection, schedule: Q01DX015 (ip), vehicle: carboxymethylcellulose (CMC)) 96 % of control and 104 % of control and 92 % of control; (dose: 66.6 mg/kg/injection, schedule: Q01DX001 (ip), vehicle: carboxymethylcellulose (CMC)) 164 % of control; (dose: 100.0 mg/kg/injection, schedule: Q01DX001 (ip), vehicle: carboxymethylcellulose (CMC)) 156 % of control; (dose: 200.0 mg/kg/injection, schedule: Q01DX001 (ip), vehicle: carboxymethylcellulose (CMC)) 104 % of control.

In the case of `Cc1cc(NS(=O)(=O)c2ccc(N=Nc3ccc(N)nc3N)cc2)nc(C)n1`, the T/C under setting [10] is 102 % of control, the T/C under setting [11] is 105 % of control and the T/C under setting [12] was 100 % of control.

`COS(=O)c1ccccc1C(=O)NOCc1ccccc1` (stereo not drawn): the T/C is 103 % of control (dose: 50.0 mg/kg/injection, schedule: Q01DX001 (ip), vehicle: Klucel (hydroxypropylcellulose) (HPC)); 100 % of control (dose: 100.0 mg/kg/injection, schedule: Q01DX001 (ip), vehicle: Klucel (hydroxypropylcellulose) (HPC)); 107 % of control (dose: 200.0 mg/kg/injection, schedule: Q01DX001 (ip), vehicle: Klucel (hydroxypropylcellulose) (HPC)).

For the compound `COc1cc(C[N+]23CC[N+](Cc4cc(OC)c(OC)c(OC)c4)(CC2)C3)cc(OC)c1OC`, the T/C is, setting by setting: under setting [10], 101 % of control; under setting [11], 98 % of control; under setting [12], 95 % of control.

Regarding `CCN(CC)CCOC(=O)c1cccc(N)c1`, the T/C reads like this: (dose: 50.0 mg/kg/injection, schedule: Q01DX009 (ip), vehicle: saline) 92 % of control; under setting [21], 111 % of control; under setting [22], 103 % of control.

On to `OCC1(O)CCC1`, for which the T/C by setting is: under setting [21], 102 % of control; under setting [1], 94 % of control; under setting [22], 99 % of control; under setting [2], 103 % of control; (dose: 400.0 mg/kg/injection, schedule: Q01DX009 (ip), vehicle: saline) 107 % of control; (dose: 400.0 mg/kg/injection, schedule: Q04DX003 (ip), vehicle: saline) 96 % of control.

On to `CCN(CC)CC#N`, for which the T/C is, setting by setting: (dose: 1.0 mg/kg/injection, schedule: Q01DX009 (ip), vehicle: saline) 97 % of control; (dose: 2.0 mg/kg/injection, schedule: Q01DX009 (ip), vehicle: saline) 99 % of control; (dose: 4.0 mg/kg/injection, schedule: Q01DX009 (ip), vehicle: saline) 95 % of control; (dose: 8.0 mg/kg/injection, schedule: Q01DX009 (ip), vehicle: saline) 100 % of control.
